Patent US20240226062A1, “METHODS AND COMPOSITIONS FOR THE TREATMENT OF DISORDERS CHARACTERIZED BY A KIDINS220 DYSFUNCTION IN A SUBJECT” (priority 2021, published 2024)

Experiments:
SNX27-retromer [1] = biological target: T1, SNX27-retromer (Mus musculus, UniProt Q9EQH3+Q9QZ88); experiment: Immunoblot of retromer complex and cargo protein levels in cultured astrocytes treated with R55; type: cell-based; settings: 10 μM R55 for 48 h
T1 construct: endogenous in cells; host or cells: primary mouse cortical astrocytes
Experimental: (§1) Cell culture, treatment and transfection of primary cortical astrocytes, neurons and HEK293T cells. Mouse cortical astrocytes were prepared from cerebral cortices of 0 to 2-day-old mice pups according to standard methods. Cells seeded on plates or glass coverslips coated with poly-L-lysine (10 μg/ml) and laminin (4 μg/ml) at a density of 5×10^4 cells/cm2 in complete DMEM-F12. After 2 additional days (DIV14-16) astrocytes were treated with vehicle (DMSO), 100 nM bafilomycin Al (Sigma Co.; St. Louis, MO, USA) for 16 h or 10 μM R55 (MedKoo Biosciences, Inc.; Morrisville, NC, USA) for 48 h. Neuronal cultures were prepared from cerebral cortex of 19-day-old Wistar rat embryos, as we have previously described (Lopez-Menendez et al. 2019). Neurons were used after 10 days in vitro (DIV) for immunofluorescence and DIV14 for biochemical assays. Neurons were pretreated or treated for different times as indicated: 50 μM NMDA and 10 μM glycine (Sigma Co.; St. Louis, MO, USA); 200 μM DL-AP5 (Tocris; Bristol, UK); 5 μM R55. Excitotoxicity was induced by treatment with the NMDAR coagonists NMDA and glycine (referred as NMDA treatment). DL-AP5 or R55 were added 1 h or 48 h before NMDA treatment, respectively. […]
Preparation of protein extracts, immunoprecipitation, and immunoblot analysis. […] Equal amounts of total lysates or immunoprecipitates were resolved in SDS-PAGE and analysed by immunoblot. Membranes were incubated with different primary and secondary antibodies and immunoreactive bands were detected by ECL (PerkinElmer, Waltham, MA USA). […]
Quantitative and statistical analysis. Immunoblot signals were quantified by densitometric analysis with ImageJ 1.47d software (NIH) and normalized using β-actin, α-tubulin or GFAP band signal intensities. […] For immunofluorescence quantitative analysis of mice and human brain samples, fluorescence intensity of specific antibodies was measured at the ependymal barrier of lateral ventricles using ImageJ 1.47d software (NIH). […] In those regions, fluorescence signal above a certain threshold, stablished as background, was quantified. […]

SNX27-retromer [2] = experiment: Immunofluorescence of SNX27-retromer localization in primary cortical neurons under NMDA excitotoxicity; type: cell-based, rat
Experimental: as §1, with “μM […].” for “μM R55.”, “or […]” for “or R55”, “respectively. HEK293T cells were cultured and transfected by standard procedures. HEK293T cells and DIV12-14 primary astrocytes were seeded at 50-60% confluence.” for “respectively.”

SNX27-retromer [3] = experiment: Immunoblot of NMDA-induced degradation of SNX27-retromer components and cargos in primary cortical neurons; type: cell-based, rat; settings: 50 μM NMDA and 10 μM glycine; DL-AP5 (200 μM) added 1 h or R55 (5 μM) 48 h before
Experimental: (§2) Cell culture, treatment and transfection of primary cortical astrocytes, neurons and HEK293T cells. Mouse cortical astrocytes were prepared from cerebral cortices of 0 to 2-day-old mice pups according to standard methods. Cells seeded on plates or glass coverslips coated with poly-L-lysine (10 μg/ml) and laminin (4 μg/ml) at a density of 5×10^4 cells/cm2 in complete DMEM-F12. After 2 additional days (DIV14-16) astrocytes were treated with vehicle (DMSO), 100 nM bafilomycin Al (Sigma Co.; St. Louis, MO, USA) for 16 h or 10 μM R55 (MedKoo Biosciences, Inc.; Morrisville, NC, USA) for 48 h. Neuronal cultures were prepared from cerebral cortex of 19-day-old Wistar rat embryos, as we have previously described (Lopez-Menendez et al. 2019). Neurons were used after 10 days in vitro (DIV) for immunofluorescence and DIV14 for biochemical assays. Neurons were pretreated or treated for different times as indicated: 50 μM NMDA and 10 μM glycine (Sigma Co.; St. Louis, MO, USA); 200 μM DL-AP5 (Tocris; Bristol, UK); 5 μM R55. Excitotoxicity was induced by treatment with the NMDAR coagonists NMDA and glycine (referred as NMDA treatment). DL-AP5 or R55 were added 1 h or 48 h before NMDA treatment, respectively. HEK293T cells were cultured and transfected by standard procedures. HEK293T cells and DIV12-14 primary astrocytes were seeded at 50-60% confluence. Two days later cells were transfected in Opti-MEM by using 0.7 μl of Lipofectamine 2000@ reagent (ThermoFisher Scientific) and 0.7 μg of DNA per 24 multi-well plate, according to the manufacturer's specifications. Cells were fixed and processed for immunofluorescence or washed with PBS to prepare protein extracts for immunoprecipitation experiments.
Preparation of protein extracts, immunoprecipitation, and immunoblot analysis. Protein extracts from mice tissue, primary cell cultures or HEK293T cells were prepared in RIPA by standard methods. Briefly, cultured cells were lysed in RIPA buffer (25 mM Tris-HCl, pH 7.6, 1% Triton X-100, 0.5% sodium deoxycholate, 0.1% SDS, 150 mM NaCl) with protease and phosphatase inhibitors for 30 min at 4° C. Lysates were centrifuged for 30 min at 14,000 rpm at 4° C., and resulting supernatant was considered the total lysate soluble fraction. Different mouse tissues were dissected, frozen in dry ice and homogenized in RIPA buffer as above using potter and Polytron homogenizers. For immunoprecipitation, total lysates were incubated with anti-VPS35 or anti-GFP antibody for 4 h at 4° C., before binding immunocomplexes to protein A sepharose beads for 1 h at 4° C. Beads were washed four times with RIPA buffer before adding Laemli sample buffer. Note that sample boiling was avoided to detect properly AQP4 band by immunoblots. Equal amounts of total lysates or immunoprecipitates were resolved in SDS-PAGE and analysed by immunoblot. Membranes were incubated with different primary and secondary antibodies and immunoreactive bands were detected by ECL (PerkinElmer, Waltham, MA USA). Immunoblot images have been cropped for presentation.
Quantitative and statistical analysis. Immunoblot signals were quantified by densitometric analysis with ImageJ 1.47d software (NIH) and normalized using β-actin, α-tubulin or GFAP band signal intensities. Data were expressed relative to values obtained in their respective untreated controls or WT mice or astrocytes. For immunofluorescence quantitative analysis of mice and human brain samples, fluorescence intensity of specific antibodies was measured at the ependymal barrier of lateral ventricles using ImageJ 1.47d software (NIH). Specific ROIs were defined in each brain section at the ependymal barrier boundaries, identified by DAPI staining of ependymal cell nuclei. In those regions, fluorescence signal above a certain threshold, stablished as background, was quantified. In the case of human brain necropsies, nine randomly selected ROIs were used for the analysis. […]

primary cortical neurons [4] = experiment: Neuronal viability under NMDAR-induced excitotoxicity (MTT reduction assay, MAP2 staining); type: cell-based, rat; settings: neurons incubated with NMDA for 6 h, R55 5 μM added 48 h before
Experimental: as §1, with “μM […].” for “μM R55.”, “or […]” for “or R55”, “respectively. HEK293T cells were cultured and transfected by standard procedures. HEK293T cells and DIV12-14 primary astrocytes were seeded at 50-60% confluence.” for “respectively.”

[5] = system: trimeric Vps35-Vps29-Vps26 core; settings: Mecozzi et al. 2014; cited from earlier work
AQP4 = experiment: Effect of bafilomycin A1 on protein levels in WT and Kidins220^f/f astrocytes (immunofluorescence and immunoblot); type: cell-based, mouse; settings: for AQP4 levels: 100 nM bafilomycin A1 for 16 h
Experimental: as §2
Preparation of protein extracts, immunoprecipitation, and immunoblot analysis. Protein extracts from mice tissue, primary cell cultures or HEK293T cells were prepared in RIPA by standard methods. Briefly, cultured cells were lysed in RIPA buffer (25 mM Tris-HCl, pH 7.6, 1% Triton X-100, 0.5% sodium deoxycholate, 0.1% SDS, 150 mM NaCl) with protease and phosphatase inhibitors for 30 min at 4° C. Lysates were centrifuged for 30 min at 14,000 rpm at 4° C., and resulting supernatant was considered the total lysate soluble fraction. […] Equal amounts of total lysates or immunoprecipitates were resolved in SDS-PAGE and analysed by immunoblot. Membranes were incubated with different primary and secondary antibodies and immunoreactive bands were detected by ECL (PerkinElmer, Waltham, MA USA). […]
Quantitative and statistical analysis. Immunoblot signals were quantified by densitometric analysis with ImageJ 1.47d software (NIH) and normalized using β-actin, α-tubulin or GFAP band signal intensities. […]

[6] = system: mouse model with plaques and tangles; settings: AD mouse model, Li et al. 2020; cited from earlier work
primary cortical neurons [7] = settings: DL-AP5 preincubation; Lopez-Menendez et al. 2009; cited from earlier work
[8] = Kidins220^f/f deficient astrocytes, bafilomycin A1 treatment (not shown)

Cl.Cl.N=C(N)SCc1ccc(CSC(=N)N)s1 [R55, thiophene-2,5-diylbis(methylene) dicarbamimidothioate dihydrochloride]
AQP4 content (SNX27-retromer [1]): increased
Kidins220 levels (SNX27-retromer [1]): mild effect on elevating
VPS35 levels (SNX27-retromer [1]): mild effect on elevating
SNX27, FAM21 and VPS35 localization in endocytic vesicles (SNX27-retromer [2]; neurons pretreated 48 h with 5 μM R55, then excitotoxic NMDA): preserved
NMDA-induced degradation of FAM21 (SNX27-retromer [3]): decreasing
NMDA-induced degradation of GluN2B subunit of the NMDAR (SNX27-retromer [3]): decreasing
NMDA-induced degradation of SNX27 (SNX27-retromer [3]): decreasing
NMDA-induced degradation of SNX27-retromer cargo Kidins220 (SNX27-retromer [3]): decreasing
cleavage of the calpain substrate spectrin into breakdown products (BDPs) (SNX27-retromer [3]): diminishment
neuroprotection (MAP2 immunofluorescence and MTT-viability assays) (primary cortical neurons [4]): strong neuroprotection
retromer levels [5]: increased
retromer-mediated trafficking of cargos [5]: enhanced

CO/C1=C\C(C)=C\[C@@H](C)[C@@H](O)[C@@H](C)C/C(C)=C/C=C/[C@H](OC)[C@@H]([C@@H](C)[C@@H](O)[C@H](C)[C@@]2(O)C[C@@H](O)[C@H](C)[C@@H](C(C)C)O2)OC1=O [bafilomycin A1]
AQP4 levels (AQP4; Kidins220^f/f astrocytes): significant increase
loss of SNX27 (AQP4; [8]): not rescued
loss of VPS35 (AQP4; [8]): not rescued
AQP4 levels (AQP4; WT astrocytes): significant increase

Cl.N=C(N)SCc1cccs1 [R33, thiophen-2-ylmethyl carbamimidothioate hydrochloride]
VPS35 levels [6]: elevation
amyloid-beta (Aβ) levels and deposition [6]: significant decrease
astrocytes activation [6]: less
learning and memory [6]: significant improvement
synaptic integrity [6]: improved
tau phosphorylation [6]: reduced
retromer levels [5]: increased
retromer-mediated trafficking of cargos [5]: enhanced

NC(CCCP(=O)(O)O)C(=O)O (racemic) [DL-AP5]
SNX27-retromer intracellular organization and colocalization of SNX27 and VPS35 (Pearson's correlation coefficient) (SNX27-retromer [2]; neurons pretreated 1 h with 200 μM DL-AP5, then 50 μM NMDA and 10 μM glycine): preserved
NMDA-induced degradation of FAM21 (SNX27-retromer [3]): blocked
NMDA-induced degradation of GluN2B subunit of the NMDAR (SNX27-retromer [3]): decreasing
NMDA-induced degradation of SNX27 (SNX27-retromer [3]): blocked
NMDA-induced degradation of SNX27-retromer cargo Kidins220 (SNX27-retromer [3]): decreasing
cleavage of the calpain substrate spectrin into breakdown products (BDPs) (SNX27-retromer [3]): reduced
neuronal survival (primary cortical neurons [7]): preserves
